In US9309221B2, “1-substituted indazole derivative” (Dainippon Sumitomo Pharma Co., Ltd., priority 2012, dated 2016):

Target: T1, human α7 nAChR (Homo sapiens, UniProt P36544)
T1 construct: expressed in transfected cells; host or cells: GH4C1 cells (rat pituitary, ATCC CCL-82.2)
Experiment: Evaluation of PAM activity with human α7 nACh receptor stably expressing cells (aequorin luminescence, FDSS7000)
Type: cell-based
Conditions: ACh at EC20; for α7PAM (%) @ 10 μmol/L: test compound 10 μmol/L, ratio of RLU (Max-Min) of test-compound wells to control wells, human α7 nAChR expressing GH4C1 cells; for PAM activity for α7 nAChR (in words): ratio of RLU (Max-Min) of test wells to control wells
Description: Evaluation of PAM Activity with Human α7 nACh Receptor Stably Expressing Cells
(1) Human α7 nAChR stably expressing cells
Human α7 nAChR stably expressing cells were generated and cultured. In detail, GH4C1 cells derived from rat pituitary (cat#CCL-82.2, ATCC, USA) were used as a host cell. PcDNA3.1Zeo vector containing a nucleotide sequence encoding a protein GenBank BAC81731 and pcDNA3.1 vector containing human α7 nAChR gene (cat#V790-20, invitrogen, Carlsbad, Calif., USA) were transfected to the cells to give aequorins and human α7 nAChR stably expressing cells respectively. The aequorins and human α7 nAChR stably expressing cells were screened with Zeocin (cat#R25001, invitrogen, Carlsbad, Calif., USA) and Geneticin (cat#10131-027, invitrogen, Carlsbad, Calif., USA) respectively.
The cells were cultured in F-10 Nutrient Mixture (Ham) medium (cat#11550-043, invitrogen, Carlsbad, Calif., USA) containing 2.5% fetal bovine serum (cat#2917354, ICN Biomedicals, Inc, USA), 15% inactivated horse serum (cat#26050-088, invitrogen, Carlsbad, Calif., USA), 1 μg/mL Geneticin, and 5 μg/mL Puromycin (cat#14861-84, invitrogen, Carlsbad, Calif., USA), in a Collagen Type 1-coated dish (cat#4030-010, iwaki, Tokyo, Japan). During the culture, the medium was replaced with fresh medium in every 2 to 3 days, and the cells were treated with TrypLE Express (cat#45604-021, invitrogen, Carlsbad, Calif., USA) to collect them in every 7 days. Thus, the cells were subcultured.
7 Days after subculturing, the cells were treated with TrypLE Express to collect them when they were about 80% confluent. The cells were suspended in a reaction medium containing Hanks (cat#14065-056, invitrogen, Carlsbad, Calif., USA)/20 mmol/L Hepes (cat#15630-080, invitrogen, Carlsbad, Calif., USA), Buffer (pH 7.4), F-10 Nutrient Mixture (Ham), and 0.1 mg/mL Geneticin, and the suspension was seeded in a 384-well plate (cat#781090, Greiner, Germany) at 20000 cells/25 μL per well.
On the next day after seeding, Viviren (cat#E649X, Promega, Madison, Wis., USA) was added to the medium so that the final concentration could be 4 μmol/L (15 μL/well). The plates were centrifuged and then placed in the dark for 4 hours at room temperature.
(2) Preparation of the Test Samples
Each of the test compounds was dissolved in DMSO to prepare each test sample at a concentration of 1000-fold the final concentration. To the solution was added Hanks/20 mM HEPES/0.2% BSA (cat#A3803, Sigma, St. Louis, Mo., USA), and the concentration was adjusted to 6-fold the final concentration.
(3) Evaluation of PAM Activity
FDSS7000 (Hamamatsu Photonics) was used to detect the luminescence signal evoked by α7 nAChR stimulation. The cells and a luminescent substrate were put on a plate, and the test sample was added thereto. […] After the addition of ACh, the luminescence signal (the central wavelength: 465 nm) was measured for 138 seconds to calculate RLU (Max-Min). The ratio of the RLU (Max-Min) of the test-compound-containing wells to that of the control wells was defined as PAM activity.

T1 sequence (P36544 23-502): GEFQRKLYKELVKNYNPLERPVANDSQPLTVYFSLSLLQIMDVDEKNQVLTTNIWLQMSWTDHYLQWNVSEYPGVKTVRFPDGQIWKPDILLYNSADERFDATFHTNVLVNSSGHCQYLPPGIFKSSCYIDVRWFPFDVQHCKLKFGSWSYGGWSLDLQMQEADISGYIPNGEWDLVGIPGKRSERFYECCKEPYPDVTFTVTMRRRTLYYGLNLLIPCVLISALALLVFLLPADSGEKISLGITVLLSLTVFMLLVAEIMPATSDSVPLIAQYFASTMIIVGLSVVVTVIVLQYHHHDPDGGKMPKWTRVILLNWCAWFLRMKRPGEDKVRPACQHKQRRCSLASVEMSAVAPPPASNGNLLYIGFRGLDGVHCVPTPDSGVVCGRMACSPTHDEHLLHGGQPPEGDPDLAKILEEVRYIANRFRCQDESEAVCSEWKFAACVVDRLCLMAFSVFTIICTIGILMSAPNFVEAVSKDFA

| Structure (SMILES) | α7PAM (%) @ 10 μmol/L [%] | PAM activity for α7 nAChR (in words) |
| --- | --- | --- |
| O=C(NC1CCC(F)(F)CC1)N1CCC(n2ncc3c(OC(F)F)cccc32)CC1 [Example 201] | 370 | – |
| CCc1ccc2c(cnn2C2CCN(C(=O)N[C@H]3CC[C@H](OC)CC3)CC2)c1 [Example 16, 4-(5-ethyl-1H-indazol-1-yl)-N-(trans-4-methoxycyclohexyl)piperidine-1-carboxamide] | 1764 | – |
| CCOc1ccc2c(cnn2C2CCN(C(=O)NC3CCC(F)(F)CC3)CC2)c1 [Example 27, N-(4,4-difluorocyclohexyl)-4-(5-ethoxy-1H-indazol-1-yl)piperidine-1-carboxamide] | 1673 | – |
| O=C(C1CCOCC1)N1CCC(n2ncc3cc(F)ccc32)CC1 [Example 104] | 190 | – |
| CCc1ccc2c(cnn2C2CCN(C(=O)C3CCOCC3)CC2)c1 [Example 111] | 410 | – |
| CCc1ccc2c(cnn2[C@H]2CC[C@@H](NC(=O)NC3CCC(F)(F)CC3)CC2)c1 [Example 5, 1-(4,4-difluorocyclohexyl)-3-(cis-4-(5-ethyl-1H-indazol-1-yl)cyclohexyl)urea] | 1368 | – |
| O=C(Nc1ccc(C(F)(F)F)nc1)N1CCC(n2ncc3cc(C4CC4)ccc32)CC1 [Example 187] | 220 | – |
| O=C(NC1CCC(F)(F)CC1)N1CCC(n2ncc3cc(OC4CC4)ccc32)CC1 [Example 249, 4-[5-(cyclopropoxy)-1H-indazol-1-yl]-N-(4,4-difluorocyclohexyl)piperidine-1-carboxamide] | 1463 | – |
| CO[C@H]1CC[C@H](NC(=O)N2CCC(n3ncc4cc(OC(F)F)ccc43)CC2)CC1 [Example 291, 4-[5-(difluoromethoxy)-1H-indazol-1-yl]-N-(trans-4-methoxycyclohexyl)piperidine-1-carboxamide] | 1433 | – |
| CO[C@H]1CCC[C@H](NC(=O)N2CCC(n3ncc4cc(C5CC5)ccc43)CC2)C1 [Example 211, 4-(5-cyclopropyl-1H-indazol-1-yl)-N-[(1S,3S)-3-methoxycyclohexyl]piperidine-1-carboxamide] | 1034 | – |
| CCO[C@H]1CC[C@H](NC(=O)N2CCC(n3ncc4cc(C)ccc43)CC2)CC1 [Example 90, N-(trans-4-ethoxycyclohexyl)-4-(5-methyl-1H-indazol-1-yl)piperidine-1-carboxamide] | 1467 | – |
| CCOc1ccc2c(cnn2C2CCN(C(=O)NC3CCCC3)CC2)c1 [Example 17] | – | stronger PAM activity than others |
| Cc1ccc2c(cnn2C2CCN(C(=O)N[C@H]3CCCC3(F)F)CC2)c1 [Example 80, (S)—N-(2,2-difluorocyclopentyl)-4-(5-methyl-1H-indazol-1-yl)piperidine-1-carboxamide] | 1033 | – |
| O=C(NC1CCOCC1)N1CCC(n2ncc3cc(C(F)(F)F)ccc32)CC1 [Example 297] | 340 | – |
| O=C(NC1CCOCC1)N1CCC(n2ncc3c(OC(F)(F)F)cccc32)CC1 [Example 304] | 380 | – |
| Cc1ccc2c(cnn2C2CCN(C(=O)N[C@H]3CCCCC3(F)F)CC2)c1 [Example 79, (S)—N-(2,2-difluorocyclohexyl)-4-(5-methyl-1H-indazol-1-yl)piperidine-1-carboxamide] | 1064 | – |
| COc1ccc2c(cnn2C2CCN(C(=O)NC3CCC(F)(F)CC3)CC2)c1 [Example 41, N-(4,4-difluorocyclohexyl)-4-(5-methoxy-1H-indazol-1-yl)piperidine-1-carboxamide] | 3749 | stronger PAM activity than others |
| CCc1cccc2c1cnn2C1CCN(C(=O)NC2CCC(F)(F)CC2)CC1 [Example 64, N-(4,4-difluorocyclohexyl)-4-(4-ethyl-1H-indazol-1-yl)piperidine-1-carboxamide] | 1133 | – |
| CCOc1ccc2c(cnn2C2CCN(C(=O)NC3CCCCC3)CC2)c1 [Example 18, N-cyclohexyl-4-(5-ethoxy-1H-indazol-1-yl)piperidine-1-carboxamide] | 6779 | stronger PAM activity than others |
| CO[C@H]1CC[C@H](NC(=O)N2CCC(n3ncc4cc(-c5ccc(F)cc5)ccc43)CC2)CC1 [Example 155] | 210 | – |
| Cc1ccc2c(cnn2C2CCN(C(=O)NC3CCC(OCC(F)(F)F)CC3)CC2)c1 (centres unmarked) [Example 83] | 420 | – |
| CO[C@H]1CC[C@H](NC(=O)N2CCC(n3ncc4c(C)c(C)ccc43)CC2)CC1 [Example 225] | 480 | – |
| CC(C)Oc1ccc2c(cnn2C2CCN(C(=O)NC3CCCCC3)CC2)c1 [Example 48, N-cyclohexyl-4-(5-isopropoxy-1H-indazol-1-yl)piperidine-1-carboxamide] | 1202 | – |

Results, then the molecule that gave them:

| α7PAM (%) @ 10 μmol/L [%] | PAM activity for α7 nAChR (in words) | Structure (SMILES) |
| --- | --- | --- |
| – | stronger PAM activity than others | CCc1ccc2c(cnn2C2CCN(C(=O)NC3CCCC3)CC2)c1 [Example 20] |
| 3399 | stronger PAM activity than others | Cc1ccc2c(cnn2C2CCN(C(=O)NC3CCC(F)(F)CC3)CC2)c1 [Example 13, N-(4,4-difluorocyclohexyl)-4-(5-methyl-1H-indazol-1-yl)piperidine-1-carboxamide] |
| 89 | – | COC1CCC(NC(=O)N2CCC(n3ncc4c(Br)cccc43)CC2)CC1 (centres unmarked) [Example 98] |
| 430 | – | COCc1nn(C2CCN(C(=O)NC3CCCCC3)CC2)c2ccc(C)cc12 [Example 68] |
| 360 | – | COc1c(C(F)(F)F)ccc2c1cnn2C1CCN(C(=O)NC2CCC(OC)CC2)CC1 (centres unmarked) [Example 317] |
| 420 | – | CCCc1ccc2c(cnn2C2CCN(C(=O)NC3CCC(OC)CC3)CC2)c1 (centres unmarked) [Example 76] |
| – | stronger PAM activity than others | CCc1ccc2c(cnn2[C@H]2CC[C@@H](NC(=O)C3CCCCC3)CC2)c1 [Example 119] |
| – | stronger PAM activity than others | COc1ccc2c(cnn2C2CCN(C(=O)NC3CCCCC3)CC2)c1 [Example 40] |
| 1576 | – | Cc1ccc2c(c1)c(C)nn2C1CCN(C(=O)NC2CCC(F)(F)CC2)CC1 [Example 45, N-(4,4-difluorocyclohexyl)-4-(3,5-dimethyl-1H-indazol-1-yl)piperidine-1-carboxamide] |
| 430 | – | COCCCc1ccc2c(cnn2C2CCN(C(=O)N[C@H]3CC[C@H](OC)CC3)CC2)c1 [Example 32] |
| 2344 | stronger PAM activity than others | CCc1ccc2c(cnn2[C@H]2CC[C@@H](NC(=O)C3CCC(F)(F)CC3)CC2)c1 [Example 4, N-(cis-4-(5-ethyl-1H-indazol-1-yl)cyclohexyl)-4,4-difluorocyclohexanecarboxamide] |
| 3053 | stronger PAM activity than others | Cc1ccc2c(cnn2C2CCN(C(=O)NC3CCCCC3)CC2)c1 [Example 8, N-cyclohexyl-4-(5-methyl-1H-indazol-1-yl)piperidine-1-carboxamide] |
| 410 | – | CCc1ccc2c(cnn2[C@H]2CC[C@@H](NC(=O)[C@H]3CC[C@H](OC)CC3)CC2)c1 [Example 122] |
